Measured values as given in ChEMBL document CHEMBL1201862, “PubChem BioAssay data set” (2004).
Activity calls are given as the source filed them. For most assays here, no stated cut-off is given here; in the data, actives have a measured EC50 and inactives only a lower limit.

Columns and labels:
[1] = growth suppression of beta-catenin-knockout colon cells, dose response, cell-based, HCT116, human colon tumor (AID 1045); type: functional;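 further: HCT116 colon tumor cells with beta catenin knocked out; cells exposed to compound for 60 hours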
[2] = Luminescence Cell-Based Dose Retest to Confirm Inhibitors of Cancer Stem Cells. [Related pubchem assays (depositor defined):AID2717, AID2721]; type: functional; settings: Homo sapiens
[3] = growth suppression of PTEN-null colon cells, dose response, cell-based, HCT116 PTEN knockout (AID 1047); type: functional;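 further: HCT116 colon tumor cells with PTEN knocked out; cells exposed to compound for 60 hours before readout; potency for loss of cell viability measured by luminescence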
[4] = inhibitors of intracellular T. cruzi replication, confirmation, NIH3T3 host cells, beta-gal luminescence (AID 2044); type: functional, cell-based;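 further: intracellular parasites grown in NIH/3T3 mouse fibroblasts as host cells; luminescent beta-galactosidase reporter signal from transgenic T. cruzi replicating inside host cells; inhibitors lower the luminescence signal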
[5] = cytotoxicity toward NIH3T3 fibroblasts, dose response, counter-screen, cell-based, ATP luminescence, mouse fibroblasts (AID 2010); type: functional;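 further: cells exposed to compound for about 90 hours before reading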
[6] = Luminescence Cell-Based Dose Response HTS to Identify Inhibitors of 5'UTR Stem-Loop Driven Prion Protein mRNA Translation in H4 Neuroglioblastoma Cells. [Related pubchem assays: 1827 (Project Summary), 1813 (Primary HTS)]; type: functional
[7] = target: T1, Replicative DNA helicase DnaB (Mycobacterium tuberculosis, UniProt P9WMR3); experiment: DnaB intein splicing inhibitors, dose response, biochemical, cell-free fluorescence (AID 449749); type: functional
T1 sequence (P9WMR3 whole entry): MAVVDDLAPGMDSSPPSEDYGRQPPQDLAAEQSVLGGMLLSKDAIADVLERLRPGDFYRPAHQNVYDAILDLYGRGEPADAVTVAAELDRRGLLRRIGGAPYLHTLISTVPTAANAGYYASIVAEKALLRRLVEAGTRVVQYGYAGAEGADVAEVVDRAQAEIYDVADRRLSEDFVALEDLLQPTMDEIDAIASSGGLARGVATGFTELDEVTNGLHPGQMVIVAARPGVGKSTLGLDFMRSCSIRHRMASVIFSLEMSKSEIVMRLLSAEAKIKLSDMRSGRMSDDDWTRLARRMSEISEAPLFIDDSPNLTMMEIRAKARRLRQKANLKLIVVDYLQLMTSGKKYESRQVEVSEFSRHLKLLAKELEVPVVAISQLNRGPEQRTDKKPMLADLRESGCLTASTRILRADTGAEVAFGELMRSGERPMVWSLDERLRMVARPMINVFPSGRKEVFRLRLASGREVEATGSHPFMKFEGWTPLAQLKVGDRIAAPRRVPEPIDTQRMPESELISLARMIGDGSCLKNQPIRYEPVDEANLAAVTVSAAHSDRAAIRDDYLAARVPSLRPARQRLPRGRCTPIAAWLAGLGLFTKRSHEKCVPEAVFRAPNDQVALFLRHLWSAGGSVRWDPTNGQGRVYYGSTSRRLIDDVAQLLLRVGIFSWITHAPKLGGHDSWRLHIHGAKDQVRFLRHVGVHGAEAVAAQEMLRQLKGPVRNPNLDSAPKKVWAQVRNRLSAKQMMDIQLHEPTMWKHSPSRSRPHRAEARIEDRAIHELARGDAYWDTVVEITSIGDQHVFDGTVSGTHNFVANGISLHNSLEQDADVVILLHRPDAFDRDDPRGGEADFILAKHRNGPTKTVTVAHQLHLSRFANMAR

Protein RecA = target: T2, Protein RecA (Mycobacterium tuberculosis, UniProt P9WHJ3); experiment: Fluorescence Cell-Free Homogeneous Dose Retest to Identify Inhibitors of RecA-Intein Splicing Activity. [Related pubchem assays (depositor defined):AID2097, AID2223, AID489010, AID492950]; type: functional
T2 sequence (P9WHJ3 whole entry): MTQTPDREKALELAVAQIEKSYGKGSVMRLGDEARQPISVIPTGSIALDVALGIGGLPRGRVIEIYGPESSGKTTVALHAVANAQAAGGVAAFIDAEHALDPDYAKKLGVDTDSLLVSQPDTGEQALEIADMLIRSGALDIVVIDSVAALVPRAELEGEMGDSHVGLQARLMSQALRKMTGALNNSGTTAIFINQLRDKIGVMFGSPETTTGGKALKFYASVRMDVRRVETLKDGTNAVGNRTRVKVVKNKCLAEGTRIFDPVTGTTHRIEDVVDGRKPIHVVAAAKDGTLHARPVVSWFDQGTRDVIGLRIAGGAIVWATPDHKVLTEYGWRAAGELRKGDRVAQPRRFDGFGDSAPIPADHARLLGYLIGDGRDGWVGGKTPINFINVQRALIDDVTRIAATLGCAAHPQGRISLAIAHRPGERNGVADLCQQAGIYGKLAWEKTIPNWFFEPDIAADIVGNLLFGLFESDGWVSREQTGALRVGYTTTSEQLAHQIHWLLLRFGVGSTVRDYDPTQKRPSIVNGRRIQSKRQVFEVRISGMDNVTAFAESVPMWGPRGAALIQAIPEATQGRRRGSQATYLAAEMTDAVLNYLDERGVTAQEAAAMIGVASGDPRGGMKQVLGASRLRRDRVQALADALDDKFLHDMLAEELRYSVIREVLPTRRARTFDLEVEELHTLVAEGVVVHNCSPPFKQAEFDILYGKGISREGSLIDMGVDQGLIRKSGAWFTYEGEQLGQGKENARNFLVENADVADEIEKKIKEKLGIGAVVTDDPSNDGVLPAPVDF

[8] = Luminescence Cell-Based Dose Response HTS to Identify Activators of Luciferase Translation or Activity in H4 […] Cells. [Related pubchem assays: 1829 (Project Summary), 1814 (Primary HTS)]; type: functional
[9] = Luminescence Cell-Based Dose Confirmation HTS to Identify Activators of 5'UTR Stem-Loop Driven Alpha-Synuclein mRNA Translation in H4 Neuroglioblastoma Cells. [Related pubchem assays: 1829 (Project Summary), 1814 (Primary HTS)]; type: functional
H4 = experiment: Luminescence Cell-Based Dose Response HTS to Identify Activators of 5'UTR Stem-Loop Driven Prion Protein mRNA Translation in H4 Neuroglioblastoma Cells. [Related pubchem assays: 1829 (Project Summary), 1814 (Primary HTS)]; type: functional; settings: Homo sapiens
[10] = target: T3, Heat shock factor protein 1 (Mus musculus, UniProt P38532); experiment: HSF1 potentiators in luciferase reporter cells, confirmation, cell-based, NIH3T3, luminescence, dose retest (AID 435004); type: functional;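 further: stress induced by proteasome inhibitor MG132 added 30 min after compound; luciferase reporter driven by HSF1 response element in NIH3T3 cells; actives raise luminescence as potentiators of the MG132 stress response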
T3 sequence (P38532 whole entry): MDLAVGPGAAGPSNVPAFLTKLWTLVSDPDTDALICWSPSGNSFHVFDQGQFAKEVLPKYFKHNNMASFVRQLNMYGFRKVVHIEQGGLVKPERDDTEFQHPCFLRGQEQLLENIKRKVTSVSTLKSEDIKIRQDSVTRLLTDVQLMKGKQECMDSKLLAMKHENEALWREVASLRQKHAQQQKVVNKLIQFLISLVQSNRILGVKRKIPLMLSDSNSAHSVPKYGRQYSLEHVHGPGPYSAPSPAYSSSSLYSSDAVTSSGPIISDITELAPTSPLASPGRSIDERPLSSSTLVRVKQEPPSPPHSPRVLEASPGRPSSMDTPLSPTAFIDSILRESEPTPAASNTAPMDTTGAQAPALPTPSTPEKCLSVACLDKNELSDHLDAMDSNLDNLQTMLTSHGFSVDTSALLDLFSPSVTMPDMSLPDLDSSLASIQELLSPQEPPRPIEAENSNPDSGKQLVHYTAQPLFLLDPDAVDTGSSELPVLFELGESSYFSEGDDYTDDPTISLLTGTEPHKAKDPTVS

[11] = inhibitors of SNCA 5'UTR-driven reporter translation, confirmation, H4 neuroglioma cells, luminescence (AID 1988); type: functional, cell-based
[12] = inhibitors of firefly luciferase expression or activity, dose response, H4 neuroglioma cells, luminescence (AID 1990); type: functional, cell-based

For `CC(C)(C)c1ccc(/C=C/C(=O)c2ccc(NC3=NCCCS3)cc2)cc1`, the EC50 [1] was 4.92 µM (active), the AC50 [2] was 2.63 µM (active) and the EC50 [3] was 6.9 µM (active). The EC50 [4] was 2.08 µM (active) and the EC50 [5] was > 60 µM (not active).

In the case of `Cc1ccc2[nH]c(SCC3CCCCO3)nc2c1` (stereo not drawn), the EC50 [6] is reported as > 60 µM (inconclusive).

For `O=S(=O)(Nc1ccc(-n2cnnn2)cc1)c1ccc(F)c(F)c1F`, the AC50 [7] was > 380 µM (inactive) and the EC50 (Protein RecA) was > 380 µM (inactive).

In the case of `CCOc1ccc(NC(=O)c2cn(CC(C)C)c(=O)c3c2c2ccccc2n3C)cc1`, the EC50 [1] is reported as 13.4 µM (active) and the EC50 [3] is reported as 10 µM (active).

For `CN1C(=O)S/C(=C\c2ccc(-n3cncn3)cc2)C1=O`, the EC50 [8] was 32.4 µM (active), the EC50 [9] was 59.6 µM (active) and the EC50 (H4) was > 120 µM (not active).

For `CC(CC#CCN1CCOCC1)OCCC#N` (stereo not drawn), the EC50 [10] was > 260 µM (inactive).

With `COc1cc(C2C(C#N)=C(N)Oc3[nH]nc(C)c32)ccc1OC(=O)c1ccccc1` (stereo not drawn) the AC50 [7] was 20.3 µM (active) and the EC50 (Protein RecA) was 17.3 µM (active).

For `Cc1cc(-c2nnc(-c3cccc(Cl)c3)o2)no1`, the EC50 [8] was 0.318 µM (active), the EC50 [9] was 0.132 µM (active) and the EC50 (H4) was 119 µM (active).

In the case of `Cc1cccc(C(=O)NC2C(=O)NNC2c2ccc(Cl)cc2)c1` (stereo not drawn), the AC50 [7] is reported as 18.7 µM (active) and the EC50 (Protein RecA) is reported as 18.9 µM (active).

In the case of `Cc1ccccc1Nc1c(-c2ccc(N3CCOCC3)cc2)nc2cnccn12`, the EC50 [8] is reported as 19.2 µM (active), the EC50 [9] is reported as 15 µM (active) and the EC50 (H4) is reported as 16.6 µM (active).

In the case of `COc1ccc(NC(=O)COc2cccc3c2CCN(Cc2cccnc2)C3=O)c(OC)c1`, the EC50 [10] is reported as > 260 µM (inactive).

In the case of `CCCOc1ccc(-c2c(=O)n(O)c3ccccc3[n+]2[O-])cc1`, the EC50 [8] is reported as 11.6 µM (active), the EC50 [9] is reported as 10.1 µM (active) and the EC50 (H4) is reported as 97.6 µM (active).

For `CC(C)(C)OC(=O)N1CC=C2C(C#N)=C(N)C(C#N)(C#N)C(c3cccs3)C2C1` (stereo not drawn), the AC50 [7] was > 380 µM (inactive) and the EC50 (Protein RecA) was 5.1 µM (active).

In the case of `CC(C)Nc1nc(N=C(N)S)nc(NC(C)C)n1`, the EC50 [6] is reported as > 120 µM (not active), the EC50 [11] is reported as > 120 µM (not active) and the EC50 [12] is reported as > 120 µM (not active).
